Columns and labels:
hNOD1 = target: T1, hNOD1 (Homo sapiens, UniProt Q9Y239); assay: Human NLR antagonist screening, NF-κB SEAP reporter in HEK293 cells; assay type: cell-based; conditions: antagonist mode, Ami 1 μM, +C12-iE-DAP 100 ng/mL, No Sample 10, Control− 1
T1 construct: expressed in transfected cells; host or cells: HEK293
T1 sequence (Q9Y239 1-953): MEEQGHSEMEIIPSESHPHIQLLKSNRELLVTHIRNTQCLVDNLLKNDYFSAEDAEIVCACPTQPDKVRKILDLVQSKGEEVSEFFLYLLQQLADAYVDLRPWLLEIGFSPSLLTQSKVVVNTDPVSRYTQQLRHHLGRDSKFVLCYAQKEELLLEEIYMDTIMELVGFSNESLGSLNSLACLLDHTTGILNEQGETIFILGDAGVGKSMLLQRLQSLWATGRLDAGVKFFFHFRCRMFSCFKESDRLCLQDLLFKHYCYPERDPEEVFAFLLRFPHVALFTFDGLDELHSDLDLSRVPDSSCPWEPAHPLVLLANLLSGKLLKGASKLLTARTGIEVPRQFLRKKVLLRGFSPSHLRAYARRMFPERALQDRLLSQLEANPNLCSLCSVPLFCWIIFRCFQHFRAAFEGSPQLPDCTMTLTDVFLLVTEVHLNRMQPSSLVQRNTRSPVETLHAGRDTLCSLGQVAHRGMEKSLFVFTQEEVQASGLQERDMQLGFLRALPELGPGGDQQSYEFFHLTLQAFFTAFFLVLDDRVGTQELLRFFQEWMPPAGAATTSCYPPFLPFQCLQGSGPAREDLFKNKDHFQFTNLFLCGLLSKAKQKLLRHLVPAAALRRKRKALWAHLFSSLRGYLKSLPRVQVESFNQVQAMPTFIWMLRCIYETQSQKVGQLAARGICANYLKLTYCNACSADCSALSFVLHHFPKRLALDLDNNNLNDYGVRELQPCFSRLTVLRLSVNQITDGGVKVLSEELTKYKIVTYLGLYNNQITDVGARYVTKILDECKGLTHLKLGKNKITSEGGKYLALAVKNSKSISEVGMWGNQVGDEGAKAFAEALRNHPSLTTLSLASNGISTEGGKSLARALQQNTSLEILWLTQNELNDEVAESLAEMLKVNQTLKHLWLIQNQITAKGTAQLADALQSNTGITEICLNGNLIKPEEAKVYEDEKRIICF
Protocol: Toll-Like Receptor (TLR), NOD-Like Receptor (NLR) and C-Type Lectin Receptor (CLR) stimulation were tested by assessing NF-κB activation in HEK293 cells expressing a given TLR, NLR or CLR. The activity of the test articles was tested at one concentration and compared to control ligands. These steps were performed in triplicate. hNOD1: C12-iE-DAP at 1 μg/mL Antagonist: 100 ng/mL. In a 96-well plate (200 μL total volume) containing the appropriate cells (50,000-75,000 cells/well), 20 μL of the test article or the positive control ligand was added to the wells. For the antagonist assay, the test article was incubated with the cells, at 37° C. with 5% CO2, for 30 minutes prior to the addition of the positive control ligand to the wells. The media added to the wells was designed for the detection of NF-κB induced SEAP expression. After a 16-24 hr incubation the optical density (OD) was read at 650 nm on a Molecular Devices SpectraMax 340PC absorbance detector. Fold induction (ratio of average induced value to average non-induced value) was determined for each TLR, NOD1, NOD2, Dectin-1a, Dectin-1b.

human Mincle = target: T2, human Mincle (Homo sapiens, UniProt Q9ULY5); assay: Human CLR antagonist screening, NF-κB SEAP reporter in HEK293 cells; assay type: cell-based; conditions: antagonist mode, Ami 1 μM, +TDB 5 μg/mL, No Sample 6, Control− 1
T2 construct: expressed in transfected cells; host or cells: HEK293
Protocol: Toll-Like Receptor (TLR), NOD-Like Receptor (NLR) and C-Type Lectin Receptor (CLR) stimulation were tested by assessing NF-κB activation in HEK293 cells expressing a given TLR, NLR or CLR. The activity of the test articles was tested at one concentration and compared to control ligands. These steps were performed in triplicate.
hMincle: Trehalose-6,6-dibehenate (TDB) at 10 μg/mL Antagonist: 5 μg/mL.
In a 96-well plate (200 μL total volume) containing the appropriate cells (50,000-75,000 cells/well), 20 μL of the test article or the positive control ligand was added to the wells. For the antagonist assay, the test article was incubated with the cells, at 37° C. with 5% CO2, for 30 minutes prior to the addition of the positive control ligand to the wells. The media added to the wells was designed for the detection of NF-κB induced SEAP expression. After a 16-24 hr incubation the optical density (OD) was read at 650 nm on a Molecular Devices SpectraMax 340PC absorbance detector.

[1] = tested on: spinal glial cells in the dorsal horn of the spinal cord; assay: Spinal glial activation (astrocytes and microglia) after intrauterine LPS, overall statements; assay type: in vivo, mouse (Balb/C); conditions: for spinal glial activation induced by intrauterine LPS: intrauterine co-administration with LPS
Excerpt: In the model, we investigated whether intrauterine LPS administration would cause an activation of the innate immune system in the uterus, replicating the inflammation often seen in dysmenorrhea, with possible association with pain. As inflammation is intrinsically linked with pain, we investigated whether activation of the innate immune system in the uterus would induce activation of spinal glial cells (central nervous system immune cells) in the dorsal horn of the spinal cord. Spinal glial cells include astrocytes and microglia. Activation of spinal glial cells was assessed using immunoflourescent staining with GFAP (astrocytes) or Iba1 (microglia). We then investigated if spinal glial activation is attenuated by the innate immune system blocking drugs amitriptyline and TAK-242.
Group 1 included twelve mice with 20 μl endotoxin-free saline introduced to the uterus on the first day of estrus and the subsequent day over 3 consecutive estrous cycles. Group 2 included twelve mice with LPS (100 μg/kg) instilled in the uterus on the first day of estrus and saline injected on the subsequent day over 3 consecutive estrous cycles. Group 3 included twelve mice with LPS (100 μg/kg) mixed with amitriptyline (20 μl of a 100 μM solution, equivalent to 28 μg/kg) instilled in the uterus on the first day of estrus, and amitriptyline alone instilled on the subsequent day over 3 consecutive estrous cycles. Group 4 included 14 mice with LPS (100 μg/kg) mixed with TAK-242 (20 μl of a 100 μM solution, equivalent to 36 μg/kg) instilled on the first day of estrus and TAK-242 alone instilled on the subsequent day over 3 consecutive estrous cycles.
Determination of spinal glial response was then assessed using immunofluorescence to confirm the validity of the experimental model.
Determination of the ability of TLR4 antagonists to block the activation of spinal astrocytes and microglia induced by intra-uterine instillation of LPS was assessed.
An assessment of glial activation was made using immunochemistry techniques including Ionized calcium binding adaptor molecule 1 (Iba1) expression and glial fibrillary-associated protein (GFAP) variability in the dorsal horn. Iba1 expression is a marker for microglial activation, and GFAP is a marker for astrocyte activation. The spinal cord levels chosen are consistent with the level of spinal afferent neurons associated with the pelvis, including the uterus in the mouse.

T2 sequence (Q9ULY5 whole entry): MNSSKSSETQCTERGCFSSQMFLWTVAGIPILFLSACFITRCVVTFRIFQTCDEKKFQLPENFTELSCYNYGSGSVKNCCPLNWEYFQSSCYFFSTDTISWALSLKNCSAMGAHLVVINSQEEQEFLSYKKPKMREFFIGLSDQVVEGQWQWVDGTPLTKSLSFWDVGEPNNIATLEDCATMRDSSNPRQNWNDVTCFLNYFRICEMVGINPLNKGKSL

CN(C)CCC=C1c2ccccc2CCc2ccccc21 [Amitriptyline]
Fold Induction (hNOD1): slight inhibitory effect
Fold Induction (hNOD1; listed as Ami): 9
Fold Induction (human Mincle): slight inhibitory effect
Fold Induction (human Mincle; listed as Ami): 5
spinal glial activation induced by intrauterine LPS [1]: additional activity reducing spinal glial activation above TAK-242 alone
spinal glial activation induced by intrauterine LPS ([1]; listed as amitriptyline): prevented
dose effective at reducing spinal glial activation ([1]; mouse model, intrauterine administration): 27 µg/kg

From patent US11400059B2, “Treatment of pain and/or pain related symptoms associated with dysmenorrhea” (ALYRA BIOTECH PTY LTD, priority 2017, dated 2022)
